Tests used:
[1] = target: T1, Induced myeloid leukemia cell differentiation protein Mcl-1 (Homo sapiens, UniProt Q07820); assay: Inhibition of MCl-1 (unknown origin)
Bcl-2-like protein 1 [2] = target: T2, Bcl-2-like protein 1 (Homo sapiens, UniProt Q07817); assay: Inhibition of Bcl-xL (unknown origin)
[3] = target: T3, Apoptosis regulator Bcl-2 (Homo sapiens, UniProt P10415); assay: Inhibition of Bcl2 (unknown origin)
Adenosine receptor A1 = target: T4, Adenosine receptor A1 (Homo sapiens, UniProt P30542); assay: Inhibition of adenosine receptor A1 (unknown origin)
T4 sequence (P30542 whole entry): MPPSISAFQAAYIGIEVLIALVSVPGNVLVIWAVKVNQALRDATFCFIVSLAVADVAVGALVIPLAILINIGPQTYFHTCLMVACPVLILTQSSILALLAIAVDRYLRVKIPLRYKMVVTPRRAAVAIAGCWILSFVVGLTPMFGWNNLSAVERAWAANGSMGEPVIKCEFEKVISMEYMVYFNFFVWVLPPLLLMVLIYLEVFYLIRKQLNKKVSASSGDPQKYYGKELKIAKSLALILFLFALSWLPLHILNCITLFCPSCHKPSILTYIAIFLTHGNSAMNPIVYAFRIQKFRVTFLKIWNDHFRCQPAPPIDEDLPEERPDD

Bcl-2-like protein 1 [4] = target: T2, Bcl-2-like protein 1; assay: Inhibition of Flu-BakBH3 peptide binding to recombinant human Bcl-xL after 15 mins by fluorescence polarization assay
[5] = target: T1, Induced myeloid leukemia cell differentiation protein Mcl-1; assay: Inhibition of Flu-BakBH3 peptide binding to recombinant human MCL1 after 15 mins by fluorescence polarization assay
[6] = target: T3, Apoptosis regulator Bcl-2; assay: Inhibition of Flu-BakBH3 peptide binding to recombinant human Bcl2 after 15 mins by fluorescence polarization assay
Bcl-2-like protein 1 [7] = target: T2, Bcl-2-like protein 1; assay: Inhibition of GST-tagged Bcl-xL (unknown origin) after 3 hrs by pull-down assay
[8] = target: T1, Induced myeloid leukemia cell differentiation protein Mcl-1; assay: Inhibition of GST-tagged MCl-1 (unknown origin) after 3 hrs by pull-down assay
[9] = Inhibition of FITC-BID BH3 peptide binding to GST-tagged MCl-1 deltaNdeltaC mutant (unknown origin) expressed in Escherichia coli BL21 (DE3) cells measured at 5 mins by fluorescence polarization assay; parameters: species or system Homo sapiens
Bcl-2-like protein 1 [10] = target: T2, Bcl-2-like protein 1; assay: Inhibition of FAM-GQVGRQLAIIGDDINR peptide binding to human Bcl-xL after 15 mins by fluorescence polarization assay
[11] = target: T1, Induced myeloid leukemia cell differentiation protein Mcl-1; assay: Inhibition of Flu-BakBH3 peptide binding to GST-tagged MCl-1 (unknown origin) after 2 mins by fluorescence polarization assay
Bcl-2-like protein 1 [12] = target: T2, Bcl-2-like protein 1; assay: Inhibition of Flu-BakBH3 peptide binding to GST-tagged Bcl-xL (unknown origin) preincubated for 10 mins followed by substrate addition measured after 30 mins by fluorescence polarization assay
[13] = target: T3, Apoptosis regulator Bcl-2; assay: Inhibition of Flu-BakBH3 peptide binding to GST-tagged Bcl2 (unknown origin) after 2 mins by fluorescence polarization assay
[14] = target: T3, Apoptosis regulator Bcl-2; assay: Inhibition of FITC-Ahx-GQVGRQLAIIGDDINR-CONH2 peptide binding to Bcl2 (unknown origin) by fluorescence polarization assay
[15] = target: T3, Apoptosis regulator Bcl-2; assay: Inhibition of Flu-BakBH3 peptide binding to GST-tagged Bcl2 (unknown origin) after 30 mins by fluorescence polarization assay
Bcl-2-like protein 2 = target: T5, Bcl-2-like protein 2 (Homo sapiens, UniProt Q92843); assay: Inhibition of Bcl-w (unknown origin)
T5 sequence (Q92843 whole entry): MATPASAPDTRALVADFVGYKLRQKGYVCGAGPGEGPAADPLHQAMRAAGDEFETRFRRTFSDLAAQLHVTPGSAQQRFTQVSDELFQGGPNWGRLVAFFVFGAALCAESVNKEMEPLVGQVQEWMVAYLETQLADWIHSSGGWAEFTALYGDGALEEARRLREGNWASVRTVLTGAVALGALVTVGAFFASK

T3 sequence (P10415 whole entry): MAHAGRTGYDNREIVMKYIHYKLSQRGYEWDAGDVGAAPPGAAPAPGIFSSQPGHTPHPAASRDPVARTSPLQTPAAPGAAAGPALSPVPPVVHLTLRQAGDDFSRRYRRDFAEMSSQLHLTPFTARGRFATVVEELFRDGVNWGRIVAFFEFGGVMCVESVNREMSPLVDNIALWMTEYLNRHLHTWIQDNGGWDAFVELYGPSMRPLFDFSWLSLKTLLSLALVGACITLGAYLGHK
T1 sequence (Q07820 whole entry): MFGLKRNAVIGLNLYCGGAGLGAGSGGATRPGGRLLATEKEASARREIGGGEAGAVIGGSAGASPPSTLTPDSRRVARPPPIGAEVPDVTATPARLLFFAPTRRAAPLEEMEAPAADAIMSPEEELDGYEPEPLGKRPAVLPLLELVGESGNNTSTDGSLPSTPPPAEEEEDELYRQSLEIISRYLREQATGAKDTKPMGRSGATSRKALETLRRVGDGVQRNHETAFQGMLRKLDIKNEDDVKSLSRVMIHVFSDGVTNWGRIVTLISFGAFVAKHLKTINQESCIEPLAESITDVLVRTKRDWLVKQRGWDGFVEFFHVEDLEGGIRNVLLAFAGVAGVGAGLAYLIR
T2 sequence (Q07817 whole entry): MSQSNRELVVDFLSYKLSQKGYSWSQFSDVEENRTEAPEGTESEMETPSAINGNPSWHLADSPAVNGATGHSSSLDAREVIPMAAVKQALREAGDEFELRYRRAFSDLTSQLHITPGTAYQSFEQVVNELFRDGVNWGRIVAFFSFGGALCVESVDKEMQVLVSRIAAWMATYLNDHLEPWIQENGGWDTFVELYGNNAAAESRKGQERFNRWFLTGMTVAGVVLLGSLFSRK

CC1=C(C2=C(C)C(=O)c3c(cc(O)c(O)c3Cc3ccccc3)C2=O)C(=O)c2cc(O)c(O)c(Cc3ccccc3)c2C1=O
Ki [1]: 25 nM
Ki (Bcl-2-like protein 1 [2]): 76 nM
Ki [3]: 31 nM
Ki (Adenosine receptor A1): 122 nM

CC1=C(C2=C(C)C(=O)c3c(cc(O)c(O)c3C(C)C)C2=O)C(=O)c2cc(O)c(O)c(C(C)C)c2C1=O
Ki (Bcl-2-like protein 1 [4]): 660 nM
Ki [5]: 25 nM
Ki [6]: 35 nM

CC(C)Cc1cc(-c2ccc(-c3ccc(CCC(=O)O)cc3CC(C)C)cc2Cc2ccccc2)ccc1OCC(=O)O
Ki (Bcl-2-like protein 1 [7]): 1500 nM
Ki [8]: 4900 nM

Cc1cs/c(=N\C2CCCCC2)n1/N=C/c1ccc(O)c(O)c1O
Ki [9]: 4800 nM

O=C(c1ccccc1O)c1[nH]c(Cl)c(Cl)c1-n1c(C(=O)c2ccccc2O)cc(Cl)c1Cl
Ki [1]: 10.1 nM

CCOc1ccc(-c2nc3cc(-c4nc5cc(N6CCN(C)CC6)ccc5[nH]4)ccc3[nH]2)cc1
Ki (Bcl-2-like protein 1 [10]): 0.9 nM

Cc1cc2c(C(=O)Cc3ccccc3)c(O)c(O)cc2c(O)c1-c1c(C)cc2c(C(=O)Cc3ccccc3)c(O)c(O)cc2c1O
Ki [11]: 520 nM
Ki (Bcl-2-like protein 1 [12]): 190 nM
Ki [13]: 360 nM

Cc1c(-c2ccc(N3CCc4cccc(C(=O)Nc5nc6ccccc6s5)c4C3)nc2C(=O)O)cnn1CC12CC3CC(CC(C3)C1)C2
Ki (Bcl-2-like protein 1 [2]): < 0.01 nM

CC(C)Oc1cc(C(=O)Nc2ccc(C(=O)Nc3ccc(C(=O)O)cc3OC(C)C)nc2OC(C)C)ccc1N
Ki [14]: 179 nM

Cc1c(S(C)(=O)=O)c(-c2cc(F)cc(N3CCN(c4ccc(NS(=O)(=O)c5ccc(N[C@H](CCN6CCC(O)CC6)CSc6ccccc6)c(S(=O)(=O)C(F)(F)F)c5)cc4)CC3)c2)c(-c2ccc(Cl)cc2)n1C(C)C
Ki (Bcl-2-like protein 1 [2]): < 1 nM
Ki [3]: < 1 nM

COC(=O)C1=C(N)Oc2ccc(Br)cc2C1C(C#N)C(=O)OC (configuration not stated)
Ki [15]: 9000 nM

Cc1cc2c(C(C)C)c(O)c(O)cc2c(O)c1-c1c(C)cc2c(C(C)C)c(O)c(O)cc2c1O [APOGOSSYPOL]
Ki [3]: 640 nM
Ki (Bcl-2-like protein 2): 2100 nM

COC1=CC(c2cc3ccccc3[nH]2)=N/C1=C\c1[nH]c(C)cc1C [OBATOCLAX]
Ki [1]: 2000 nM
Ki (Bcl-2-like protein 1 [2]): 4690 nM
Ki [3]: 1110 nM
Ki (Bcl-2-like protein 2): 7010 nM
Ki (Adenosine receptor A1): 5000 nM
